# Reference: PMC7096432, “Transport and kinase activities of CbrA of Pseudomonas putida KT2440” (Scientific Reports, 2020)
# T1: PAS domain of CbrA (Pseudomonas putida, UniProt Q88DX3)
# T1 construct: gene PP_4695; PAS domain, residues 614-745, C-terminal 12His tag, E. coli BL21 / C43, Ni-NTA purified
# T1 sequence (Q88DX3 614-745): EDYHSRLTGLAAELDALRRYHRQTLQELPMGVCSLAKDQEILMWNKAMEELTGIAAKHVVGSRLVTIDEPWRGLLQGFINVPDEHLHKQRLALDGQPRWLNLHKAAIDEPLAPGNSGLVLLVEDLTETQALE
# T2: SLC5 domain of CbrA (Pseudomonas putida, UniProt Q88DX3)
# T2 construct: gene PP_4695; SLC5 transporter domain, residues 3-544
# T2 sequence (Q88DX3 3-544): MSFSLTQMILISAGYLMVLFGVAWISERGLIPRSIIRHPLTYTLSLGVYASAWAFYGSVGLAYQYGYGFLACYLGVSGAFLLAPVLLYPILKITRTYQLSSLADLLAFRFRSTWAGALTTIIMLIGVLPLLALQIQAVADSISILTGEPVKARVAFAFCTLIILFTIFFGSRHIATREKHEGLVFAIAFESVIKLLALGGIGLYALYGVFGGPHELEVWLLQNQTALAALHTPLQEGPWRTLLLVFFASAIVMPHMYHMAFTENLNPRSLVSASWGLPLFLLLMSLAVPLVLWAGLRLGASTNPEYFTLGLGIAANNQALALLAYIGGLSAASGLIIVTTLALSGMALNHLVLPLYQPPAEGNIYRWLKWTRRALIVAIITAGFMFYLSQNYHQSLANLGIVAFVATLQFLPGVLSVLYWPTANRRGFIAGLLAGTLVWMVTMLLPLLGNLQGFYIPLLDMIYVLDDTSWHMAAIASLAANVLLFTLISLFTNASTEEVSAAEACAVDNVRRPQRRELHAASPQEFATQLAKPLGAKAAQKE
# T3: CbrA (Pseudomonas putida, UniProt Q88DX3)
# T3 construct: gene PP_4695; full length, 109 kDa predicted
# T3 sequence (Q88DX3 1-991): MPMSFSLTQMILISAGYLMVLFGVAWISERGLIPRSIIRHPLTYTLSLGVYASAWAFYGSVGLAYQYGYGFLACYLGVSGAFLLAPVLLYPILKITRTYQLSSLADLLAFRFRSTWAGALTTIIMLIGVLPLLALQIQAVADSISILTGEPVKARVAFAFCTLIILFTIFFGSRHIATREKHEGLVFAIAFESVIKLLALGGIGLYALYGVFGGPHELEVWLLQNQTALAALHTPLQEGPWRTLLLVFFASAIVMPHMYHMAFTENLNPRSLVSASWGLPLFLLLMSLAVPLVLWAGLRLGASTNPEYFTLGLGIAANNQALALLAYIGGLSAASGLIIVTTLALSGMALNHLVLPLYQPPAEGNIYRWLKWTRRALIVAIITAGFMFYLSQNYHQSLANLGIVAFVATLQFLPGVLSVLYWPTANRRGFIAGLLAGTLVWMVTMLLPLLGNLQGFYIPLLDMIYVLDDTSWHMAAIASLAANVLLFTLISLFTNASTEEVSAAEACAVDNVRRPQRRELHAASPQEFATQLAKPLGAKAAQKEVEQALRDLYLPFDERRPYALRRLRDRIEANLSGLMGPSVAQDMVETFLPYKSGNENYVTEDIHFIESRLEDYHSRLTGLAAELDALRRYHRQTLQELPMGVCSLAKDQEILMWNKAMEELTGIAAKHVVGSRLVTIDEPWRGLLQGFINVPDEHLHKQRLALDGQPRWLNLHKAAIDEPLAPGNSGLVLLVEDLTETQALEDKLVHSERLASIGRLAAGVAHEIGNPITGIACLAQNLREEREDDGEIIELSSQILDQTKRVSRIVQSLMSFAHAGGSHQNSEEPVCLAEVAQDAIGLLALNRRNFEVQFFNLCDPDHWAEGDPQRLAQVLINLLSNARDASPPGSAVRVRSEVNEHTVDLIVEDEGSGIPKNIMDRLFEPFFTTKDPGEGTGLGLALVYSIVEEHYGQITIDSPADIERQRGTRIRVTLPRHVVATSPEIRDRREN
# T4: CbrAΔSLC5 (Pseudomonas putida, UniProt Q88DX3)
# T4 construct: gene PP_4695; cytoplasmic domains, residues 614-992, C-terminal 12His tag, 44 kDa predicted, E. coli C41, Ni-NTA purified
# T4 sequence (Q88DX3 614-991): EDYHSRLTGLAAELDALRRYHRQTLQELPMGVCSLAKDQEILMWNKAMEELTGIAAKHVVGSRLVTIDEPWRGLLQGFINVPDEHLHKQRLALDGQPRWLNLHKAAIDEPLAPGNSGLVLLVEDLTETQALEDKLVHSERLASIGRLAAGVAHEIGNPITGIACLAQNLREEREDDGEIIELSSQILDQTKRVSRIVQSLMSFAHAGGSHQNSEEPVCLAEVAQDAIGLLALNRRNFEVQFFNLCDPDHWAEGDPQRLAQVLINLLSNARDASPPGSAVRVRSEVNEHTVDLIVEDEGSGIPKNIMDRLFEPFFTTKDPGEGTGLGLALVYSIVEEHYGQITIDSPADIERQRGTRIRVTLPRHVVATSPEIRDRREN
# B1: SLC5 domain of CbrA (Pseudomonas putida KT2440) (protein)
# chain: T2 sequence (Q88DX3 3-544)
# notes: SLC5 transporter domain, residues 3-544
# B2: CbrA (Pseudomonas putida KT2440) (protein)
# chain: T3 sequence (Q88DX3 1-991)
# notes: full length, 109 kDa predicted
# What was measured:
# PAS domain of CbrA [1] = biological target: T1, PAS domain of CbrA; test: thermal shift, nanoDSF; format: binding; conditions: read-out: dTm at 1 mM
# PAS domain of CbrA [2] = biological target: T1, PAS domain of CbrA; test: thermal shift titration, nanoDSF; format: binding
# SLC5 domain of CbrA = biological target: T2, SLC5 domain of CbrA; test: DRaCALA, E. coli C43 membrane vesicles; format: binding; conditions: 1.35 µM ligand, 100 mM KPi pH 7.5, 25 °C; labelled compound
# CbrA = biological target: T3, CbrA; test: DRaCALA, E. coli C43 membrane vesicles; format: binding; conditions: 1.35 µM ligand, 100 mM KPi pH 7.5, 25 °C; labelled compound
# CbrAΔSLC5 = biological target: T4, CbrAΔSLC5; test: autophosphorylation, SDS-PAGE; format: biochemical; conditions: 50 mM Tris-HCl pH 7.5, 10 mM MgCl2, 360 mM KCl, 30 °C; labelled compound
# [3] = substrate: N[C@@H](Cc1c[nH]cn1)C(=O)O; test: 3H-L-histidine uptake into P. putida LW1 cells; format: cell-based, Pseudomonas putida; conditions: transport, 100 mM Tris/MES pH 6.0, 25 °C, energized with 10 mM D-lactate, background subtracted, labelled compound
molecule,measurement,setting,value
N[C@@H](Cc1cnc[nH]1)C(=O)O [L-histidine],ΔTm at 1000 µM,PAS domain of CbrA [1],0.73 ± 0.13 °C
same,Kd,PAS domain of CbrA [2],43 ± 13 µM
same,bound fraction,SLC5 domain of CbrA,evidence for binding of ^3H-L-histidine to CbrA and the SLC5 domain
same,bound fraction,CbrA,evidence for binding of ^3H-L-histidine to CbrA and the SLC5 domain
Nc1ncnc2c1ncn2[C@@H]1O[C@H](COP(=O)(O)OP(=O)(O)OP(=O)(O)O)[C@@H](O)[C@H]1O [γ-32P-ATP],"autophosphorylation, 32P SDS-PAGE",CbrAΔSLC5,catalyzed both autophosphorylation and transfer of the phosphoryl group to CbrB
B1,Km,[3],0.58 ± 0.18 µM
B2,Km,[3],0.7 ± 0.2 µM
